Results taken from patent publication US11702429B2, “mTORC modulators and uses thereof” (Aeovian Pharmaceuticals, Inc., priority 2019, dated 2023).
Read-outs that look alike come from different tables or passages of the source.

Columns and labels:
mTORC1 = target: T1, mTORC1 (Homo sapiens, UniProt P42345+P62942); assay: Inhibition assay for mTORC1: phosphorylation of pS6K at Thr389, AlphaLISA in PC3 cells; type: cell-based; conditions: for IC50: read-out: pIC50 mTORC1 (converted)
T1 construct: endogenous in cells; host or cells: PC3 cells (human prostate adenocarcinoma)
Method: (§1) The IC50s of the inhibition of mTORC1 and mTORC2 were determined in vitro by determining the phosphorylation of pS6K at position Thr389 (mTORC1 inhibition) and pAkt at Ser473 (mTORC2 inhibition). In vitro studies were performed with AlphaLISA® technology using PC3 cells (Prostate Adenocarcinoma; Human (Homo sapiens)). The cells were seeded in 96 well plates and were treated for 24 hours with the different compounds. […] All analysis were performed using GraphPad Prism 7.0 (GraphPad Software, San Diego, USA).

mTORC2 = target: T2, mTORC2 (Homo sapiens, UniProt P42345+P62942); assay: Inhibition assay for mTORC2: phosphorylation of pAkt at Ser473, AlphaLISA in PC3 cells; type: cell-based; conditions: for IC50: read-out: pIC50 mTORC2 (converted)
T2 construct: endogenous in cells; host or cells: PC3 cells (human prostate adenocarcinoma)
Method: as §1

[1] = PC3 cells, treated 24 hours, pS6K Thr389, AlphaLISA, C16 diastereomer mixtures not separated
[2] = PC3 cells, treated 24 hours, pAkt Ser473, AlphaLISA, C16 diastereomer mixtures not separated

T2 sequence (P62942 2-108 limits assumed, other chains not shown): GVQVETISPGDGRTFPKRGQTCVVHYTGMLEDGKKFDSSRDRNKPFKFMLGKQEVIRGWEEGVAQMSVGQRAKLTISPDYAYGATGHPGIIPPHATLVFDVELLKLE

COC1CC(CC(C)C2CC(=O)C(C)C=C(C)C(O)C(OC)C(=O)C(C)CC(C)C=CC=CC=C(C)C(OCCO)CC3CCC(C)C(O)(O3)C(=O)C(=O)N3CCCCC3C(=O)O2)CCC1OCCCN1CCOCC1C (mixture of isomers) [Compound 2]
pIC50 mTORC1 (mTORC1; [1]): A (pIC50 for mTORC1 of >9.5 as A)
pIC50 mTORC2 (mTORC2; [2]): A (PIC50 for mTORC2 of <5 as A)

COCCCOC1CC2CCC(C)C(O)(O2)C(=O)C(=O)N2CCCCC2C(=O)OC(C(C)CC2CCC(OCCCO)C(OC)C2)CC(=O)C(C)C=C(C)C(O)C(OC)C(=O)C(C)CC(C)C=CC=CC=C1C (centres unmarked) [Compound 33]
pIC50 mTORC1 (mTORC1; [1]): A (pIC50 for mTORC1 of >9.5 as A)
pIC50 mTORC2 (mTORC2; [2]): B (5 to 6 as B)

COCCCO[C@@H]1CC[C@@H](C[C@@H](C)[C@@H]2CC(=O)[C@H](C)/C=C(\C)[C@@H](O)[C@@H](OC)C(=O)[C@H](C)C[C@H](C)/C=C/C=C/C=C(\C)C(OCCOC)C[C@@H]3CC[C@@H](C)[C@@](O)(O3)C(=O)C(=O)N3CCCCC3C(=O)O2)C[C@H]1OC (some centres unmarked) [Compound 14]
pIC50 mTORC1 (mTORC1; [1]): A (pIC50 for mTORC1 of >9.5 as A)
pIC50 mTORC2 (mTORC2; [2]): A (PIC50 for mTORC2 of <5 as A)

COCCOC1C[C@@H]2CC[C@@H](C)[C@@](O)(O2)C(=O)C(=O)N2CCCC[C@H]2C(=O)O[C@H]([C@H](C)C[C@@H]2CC[C@@H](OCCCN3CC4(COC4)C3)[C@H](OC)C2)CC(=O)[C@H](C)/C=C(\C)[C@@H](O)[C@@H](OC)C(=O)[C@H](C)C[C@H](C)/C=C/C=C/C=C/1C (mixture of isomers) [Compound 26]
IC50 (mTORC1; [1]): < 0.316 nM
IC50 (mTORC2; [2]): > 10000 nM

COCCOC1CC2CCC(C)C(O)(O2)C(=O)C(=O)N2CCCCC2C(=O)OC(C(C)CC2CCC(OCCCN3CCOCC3C)C(OC)C2)CC(=O)C(C)C=C(C)C(O)C(OC)C(=O)C(C)CC(C)C=CC=CC=C1C (mixture of isomers) [Compound 42]
IC50 (mTORC1; [1]): < 0.316 nM
IC50 (mTORC2; [2]): 1000 to 10000 nM

CO[C@@H]1C[C@H](C[C@@H](C)[C@@H]2CC(=O)[C@H](C)/C=C(\C)[C@@H](O)[C@@H](OC)C(=O)[C@H](C)C[C@H](C)/C=C/C=C/C=C(\C)C(OCCCCO)C[C@@H]3CC[C@@H](C)[C@@](O)(O3)C(=O)C(=O)N3CCCCC3C(=O)O2)CC[C@H]1O (some centres unmarked) [Compound 221]
IC50 (mTORC1): < 0.316 nM
IC50 (mTORC2): 1000 to 10000 nM

COC1C[C@@H]2CC[C@@H](C)[C@@](O)(O2)C(=O)C(=O)N2CCCCC2C(=O)O[C@H]([C@H](C)C[C@@H]2CC[C@@H](OC(=O)NCCc3c[nH]cn3)[C@H](OC)C2)CC(=O)[C@H](C)/C=C(\C)[C@@H](O)[C@@H](OC)C(=O)[C@H](C)C[C@H](C)/C=C/C=C/C=C/1C (some centres unmarked) [Compound 364]
IC50 (mTORC1): < 0.316 nM
IC50 (mTORC2): < 1000 nM

COC1CC2CCC(C)C(O)(O2)C(=O)C(=O)N2CCCCC2C(=O)OC(C(C)CC2CCC(OCCCN3CCCC(O)C3)C(OC)C2)CC(=O)C(C)C=C(C)C(O)C(OC)C(=O)C(C)CC(C)C=CC=CC=C1C (centres unmarked) [Compound 340]
IC50 (mTORC1): < 0.316 nM
IC50 (mTORC2): < 1000 nM

CO[C@@H]1C[C@H](C[C@@H](C)[C@@H]2CC(=O)[C@H](C)/C=C(\C)[C@@H](O)[C@@H](OC)C(=O)[C@H](C)C[C@H](C)/C=C/C=C/C=C(\C)C(c3cccn3C)C[C@@H]3CC[C@@H](C)[C@@](O)(O3)C(=O)C(=O)N3CCCCC3C(=O)O2)CC[C@H]1O (some centres unmarked) [Compound 212]
IC50 (mTORC1): 0.316 to 3.16 nM
IC50 (mTORC2): 1000 to 10000 nM

CO[C@@H]1C[C@H](C[C@@H](C)[C@@H]2CC(=O)[C@H](C)/C=C(\C)[C@@H](O)[C@@H](OC)C(=O)[C@H](C)C[C@H](C)/C=C/C=C/C=C(\C)C(OCC3CCOCC3)C[C@@H]3CC[C@@H](C)[C@@](O)(O3)C(=O)C(=O)N3CCCCC3C(=O)O2)CC[C@H]1O (some centres unmarked) [Compound 226]
IC50 (mTORC1): 0.316 to 3.16 nM
IC50 (mTORC2): > 10000 nM

CO[C@@H]1C[C@H](C[C@@H](C)[C@@H]2CC(=O)[C@H](C)/C=C(\C)[C@@H](O)[C@@H](OC)C(=O)[C@H](C)C[C@H](C)/C=C/C=C/C=C(\C)C(OCCO)C[C@@H]3CC[C@@H](C)[C@@](O)(O3)C(=O)C(=O)N3CCCC[C@H]3C(=O)O2)CC[C@H]1OCCCN1CCN(C)CC1 (mixture of isomers) [Compound 34]
IC50 (mTORC1; [1]): 0.316 to 3.16 nM
IC50 (mTORC2; [2]): > 10000 nM

CO[C@@H]1C[C@H](C[C@@H](C)[C@@H]2CC(=O)[C@H](C)/C=C(\C)[C@@H](O)[C@@H](OC)C(=O)[C@H](C)C[C@H](C)/C=C/C=C/C=C(\C)C(OC3COC3)C[C@@H]3CC[C@@H](C)[C@@](O)(O3)C(=O)C(=O)N3CCCCC3C(=O)O2)CC[C@H]1O (some centres unmarked) [Compound 218]
IC50 (mTORC1): 0.316 to 3.16 nM
IC50 (mTORC2): > 10000 nM

COC1C[C@@H]2CC[C@@H](C)[C@@](O)(O2)C(=O)C(=O)N2CCCCC2C(=O)O[C@H]([C@H](C)C[C@@H]2CC[C@@H](OC(=O)NCCCN(CCO)CCO)[C@H](OC)C2)CC(=O)[C@H](C)/C=C(\C)[C@@H](O)[C@@H](OC)C(=O)[C@H](C)C[C@H](C)/C=C/C=C/C=C/1C (some centres unmarked) [Compound 358]
IC50 (mTORC1): < 0.316 nM
IC50 (mTORC2): < 1000 nM

COC1C[C@@H]2CC[C@@H](C)[C@@](O)(O2)C(=O)C(=O)N2CCCCC2C(=O)O[C@H]([C@H](C)C[C@@H]2CC[C@@H](OCc3ccccc3)[C@H](OC)C2)CC(=O)[C@H](C)/C=C(\C)[C@@H](O)[C@@H](OC)C(=O)[C@H](C)C[C@H](C)/C=C/C=C/C=C/1C (some centres unmarked) [Compound 305]
IC50 (mTORC1): < 0.316 nM
IC50 (mTORC2): < 1000 nM

COC1C[C@@H]2CC[C@@H](C)[C@@](O)(O2)C(=O)C(=O)N2CCCCC2C(=O)O[C@H]([C@H](C)C[C@@H]2CC[C@@H](OCCCN3CCN(C)CC3)[C@H](OC)C2)CC(=O)[C@H](C)/C=C(\C)[C@@H](O)[C@@H](OC)C(=O)[C@H](C)C[C@H](C)/C=C/C=C/C=C/1C (some centres unmarked) [Compound 332]
IC50 (mTORC1): < 0.316 nM
IC50 (mTORC2): < 1000 nM

COC1C[C@@H]2CC[C@@H](C)[C@@](O)(O2)C(=O)C(=O)N2CCCCC2C(=O)O[C@H]([C@H](C)C[C@@H]2CC[C@@H](OC(=O)N(C)CCCO)[C@H](OC)C2)CC(=O)[C@H](C)/C=C(\C)[C@@H](O)[C@@H](OC)C(=O)[C@H](C)C[C@H](C)/C=C/C=C/C=C/1C (some centres unmarked) [Compound 338]
IC50 (mTORC1): < 0.316 nM
IC50 (mTORC2): < 1000 nM

COC1C[C@@H]2CC[C@@H](C)[C@@](O)(O2)C(=O)C(=O)N2CCCCC2C(=O)O[C@H]([C@H](C)C[C@@H]2CC[C@@H](OCCN3CCC(O)CC3)[C@H](OC)C2)CC(=O)[C@H](C)/C=C(\C)[C@@H](O)[C@@H](OC)C(=O)[C@H](C)C[C@H](C)/C=C/C=C/C=C/1C (some centres unmarked) [Compound 353]
IC50 (mTORC1): < 0.316 nM
IC50 (mTORC2): < 1000 nM

COC1C[C@@H]2CC[C@@H](C)[C@@](O)(O2)C(=O)C(=O)N2CCCCC2C(=O)O[C@H]([C@H](C)C[C@@H]2CC[C@@H](OCCOCCOCCO)[C@H](OC)C2)CC(=O)[C@H](C)/C=C(\C)[C@@H](O)[C@@H](OC)C(=O)[C@H](C)C[C@H](C)/C=C/C=C/C=C/1C (some centres unmarked) [Compound 317]
IC50 (mTORC1): < 0.316 nM
IC50 (mTORC2): < 1000 nM

CO[C@@H]1C[C@H](C[C@@H](C)[C@@H]2CC(=O)[C@H](C)/C=C(\C)[C@@H](O)[C@@H](OC)C(=O)[C@H](C)C[C@H](C)/C=C/C=C/C=C(\C)C(OC[C@@H](C)O)C[C@@H]3CC[C@@H](C)[C@@](O)(O3)C(=O)C(=O)N3CCCCC3C(=O)O2)CC[C@H]1O (some centres unmarked) [Compound 223]
IC50 (mTORC1): 0.316 to 3.16 nM
IC50 (mTORC2): > 10000 nM

CO[C@@H]1C[C@H](C[C@@H](C)[C@@H]2CC(=O)[C@H](C)/C=C(\C)[C@@H](O)[C@@H](OC)C(=O)[C@H](C)C[C@H](C)/C=C/C=C/C=C(\C)C(OCCO)C[C@@H]3CC[C@@H](C)[C@@](O)(O3)C(=O)C(=O)N3CCCC[C@H]3C(=O)O2)CC[C@H]1OC(=O)NCCc1ccccc1 (mixture of isomers) [Compound 1, [(1R,2R,4S)-4-[(2R)-2-[(1R,9S,12SR,15R,16E,18R,19R,21R,23S,24E,26E,28E,32SR,35R)-1,18-dihydroxy-30-(2-hydroxyethoxy)-19-methoxy-15,17,21,23,29,35-hexamethyl-2,3,10,14,20-pentaoxo-11,36-dioxa-4-azatricyclo[30.3.1.0^4,9]hexatriaconta-16,24,26,28-tetraen-1^2-yl]propyl]-2-methoxy-cyclohexyl] N-(2-phenylethyl)carbamate]
IC50 (mTORC1; [1]): < 0.316 nM
IC50 (mTORC2; [2]): > 10000 nM

COC1C[C@@H]2CC[C@@H](C)[C@@](O)(O2)C(=O)C(=O)N2CCCCC2C(=O)O[C@H]([C@H](C)C[C@@H]2CC[C@@H](n3ncnn3)[C@H](OC)C2)CC(=O)[C@H](C)/C=C(\C)[C@@H](O)[C@@H](OC)C(=O)[C@H](C)C[C@H](C)/C=C/C=C/C=C/1C (some centres unmarked) [Compound 307]
IC50 (mTORC1): < 0.316 nM
IC50 (mTORC2): < 1000 nM

COC1C[C@@H]2CC[C@@H](C)[C@@](O)(O2)C(=O)C(=O)N2CCCCC2C(=O)O[C@H]([C@H](C)C[C@@H]2CC[C@@H](OC(=O)NCCc3ccncc3)[C@H](OC)C2)CC(=O)[C@H](C)/C=C(\C)[C@@H](O)[C@@H](OC)C(=O)[C@H](C)C[C@H](C)/C=C/C=C/C=C/1C (some centres unmarked) [Compound 334]
IC50 (mTORC1): < 0.316 nM
IC50 (mTORC2): < 1000 nM

COC1C[C@@H]2CC[C@@H](C)[C@@](O)(O2)C(=O)C(=O)N2CCCCC2C(=O)O[C@H]([C@H](C)C[C@@H]2CC[C@@H](OCCCN3CCOCC3)[C@H](OC)C2)CC(=O)[C@H](C)/C=C(\C)[C@@H](O)[C@@H](OC)C(=O)[C@H](C)C[C@H](C)/C=C/C=C/C=C/1C (some centres unmarked) [Compound 322]
IC50 (mTORC1): < 0.316 nM
IC50 (mTORC2): < 1000 nM

CO[C@@H]1C[C@H](C[C@@H](C)[C@@H]2CC(=O)[C@H](C)/C=C(\C)[C@@H](O)[C@@H](OC)C(=O)[C@H](C)C[C@H](C)/C=C/C=C/C=C(\C)C(OCCO)C[C@@H]3CC[C@@H](C)[C@@](O)(O3)C(=O)C(=O)N3CCCC[C@H]3C(=O)O2)CC[C@H]1OCCCN1CCO[C@H](C)C1 (mixture of isomers) [Compound 13]
IC50 (mTORC1; [1]): < 0.316 nM
